“Also recorded” adds a separate entry of the source.
What was measured:
MCP-1 Induction by CRP = experiment: Modulation of CRP effects by statin, aspirin and PPAR activators: MCP-1 secretion in HUVEC, sandwich ELISA; assay type: cell-based, human; settings: for effect on induction of MCP-1 by CRP (in words): test substance 10 μM
Protocol: Experiments were performed in HUVEC. […] After 2 hours, the cells were incubated with C-reactive protein or with IL-1β 10 ng/mL for 24 hours. […] Secretion of MCP-1 and RANTES were assessed by sandwich ELISA (Colorimetric Quantikine, by R and D Systems). All determinations were performed in duplicate. Data were expressed as mean±SD of 5-6 separate experiments. Cell viability was assessed by staining with trypan blue.

[1] = test system: human umbilical vein endothelial cells (HUVEC); experiment: Adhesion molecule expression in HUVEC by FACS, in the presence of serum; assay type: cell-based; settings: 24-hour incubation, HUVEC with human serum
HUVEC [2] = experiment: RANTES secretion by HUVEC, sandwich ELISA; assay type: cell-based, human
Protocol: (§1) Experiments were performed in HUVEC, cultured in 12-well plates in basic endothelial cell medium CS-C, with 10 mM HEPES and 15% human serum (Sigma). Culture supernatants were collected 6-24 hours after stimulation with either IL-1β or CRP, at the concentration indicated. Secretion of MCP-1 and RANTES were assessed by sandwich ELISA (Colorimetric Quantikine, by R and D Systems). All determinations were performed in duplicate. Data were expressed as mean±SD of 5-6 separate experiments. Cell viability was assessed by staining with trypan blue.

HUVEC [3] = experiment: MCP-1 secretion by HUVEC, sandwich ELISA; assay type: cell-based, human
Protocol: as §1

[4] = test system: human umbilical vein endothelial cells (HUVEC); experiment: Adhesion molecule expression in HUVEC by FACS, serum-free medium; assay type: cell-based
Protocol: HUVEC were incubated with human C-reactive protein similar to Example 2 except in the absence of serum. Cells were detached by incubation with 10 mmol/L EDTA in PBS (without trypsin), washed with PBS buffer and suspended in PBS with 0.1% sodium azide. Cell were then stained with R-Phycoerythrin labeled monoclonal antibodies (Pharmingen) against the adhesion molecules VCAM-1 (CD106) or ICAM-1 (CD54) or with Phycoerythrin labeled isotype IgG as control. For detection of E-selectin, HUVEC were incubated for 6 hours with C-reactive protein and then stained with a FITC labeled monoclonal antibody against E-selectin (RandD Systems) or the appropriate isotype control (Pasceri et al., 2000). R-Phycoerythrin labeled monoclonal antibodies (Pharmingen) against the C-reactive protein receptors FCγRI and FCγRII (Marnell et al., 1995; Bharadwaj et al., 1999) were also used.
(§2) The staining procedure was performed on ice for 30 minutes, followed by washing. The fluorescence intensity of 9000 cells for each sample was quantified by a FACS CaliburTM analyser (Becton Dickinson). All experiments were performed in triplicate.

[5] = test system: human umbilical vein endothelial cells (HUVEC); experiment: Adhesion molecule expression in HUVEC by FACS, in the presence of serum; assay type: cell-based
Protocol: All experiments were performed on human umbilical vein endothelial cells (HUVEC, from Cascade Biology). HUVEC were grown in M199 medium with endothelial cell growth supplement, heparin and 15% fetal bovine serum or human serum. Cells were used at passage 2 to 4.
HUVEC were incubated with human C-reactive protein at the concentration indicated for 24 hours. Cells were detached by incubation with 10 mmol/L EDTA in PBS (without trypsin), washed with PBS buffer and suspended in PBS with 1% FBS and 0.1% sodium azide. Cell were then stained with R-Phycoerythrin labeled monoclonal antibodies (Pharmingen) against the adhesion molecules VCAM-1 (CD106) or ICAM-1 (CD54) or with Phycoerythrin labeled isotype IgG as control. For detection of E-selectin, HUVEC were incubated for 6 hours with C-reactive protein and then stained with a FITC labeled monoclonal antibody against E-selectin (RandD Systems) or the appropriate isotype control (Pasceri et al., 2000). R-Phycoerythrin labeled monoclonal antibodies (Pharmingen) against the C-reactive protein receptors FCγRI and FCγRII (Marnell et al., 1995; Bharadwaj et al., 1999) were also used.
as §2

[6] = CRP 100 μg/mL + test substance 10 μmol/L
[7] = CRP 100 μg/mL + test substance 100 μmol/L
[8] = CRP 100 μg/mL + test substance 1 mmol/L
[9] = Homo sapiens, HUVEC, CRP 100 μg/mL + test substance 100 μmol/L
[10] = CRP 100 μg/mL + test substance 50 μmol/L
[11] = CRP 100 μg/mL + test substance 200 μmol/L
[12] = CRP 100 μg/mL + test substance 20 μmol/L
[13] = C-reactive protein 10 μg/mL, 24-hour incubation, HUVEC with human serum

CCCCC/C=C/C=C1/C(=O)C=C[C@@H]1C/C=C\CCCC(=O)O [15d-PGJ2, 15-deoxy-^Δ12,14-prostaglandin J2]
% of Maximal Response (MCP-1 Induction by CRP; [6]): 24% | -Fold Increase in MCP-1 conc. (MCP-1 Induction by CRP; [6]): 1.5 ± 0.6 -Fold | MCP-1 conc. (MCP-1 Induction by CRP; [6]): 3.4 ± 1.6 ng/mL | effect on induction of MCP-1 by CRP (in words) (MCP-1 Induction by CRP): almost completely abolished

Cc1cccc(Nc2cc(Cl)nc(SCC(=O)O)n2)c1C [Wy 14649]
% of Maximal Response (MCP-1 Induction by CRP; [6]): 101% | -Fold Increase in MCP-1 conc. (MCP-1 Induction by CRP; [6]): 6.4 ± 2.1 -Fold | MCP-1 conc. (MCP-1 Induction by CRP; [6]): 13.9 ± 6.0 ng/mL | % of Maximal Response (MCP-1 Induction by CRP; [7]): 30% | -Fold Increase in MCP-1 conc. (MCP-1 Induction by CRP; [7]): 1.9 ± 0.9 -Fold | MCP-1 conc. (MCP-1 Induction by CRP; [7]): 4.2 ± 2.2 ng/mL | effect on induction of MCP-1 by CRP (in words) (MCP-1 Induction by CRP): no effect | effect on secretion of MCP-1 induced by CRP (in words) (MCP-1 Induction by CRP; test substance 100 μM): completely inhibited

CC(=O)Oc1ccccc1C(=O)O [aspirin]
-Fold Increase in MCP-1 conc. (MCP-1 Induction by CRP; [7]): 6.7 ± 1.9 -Fold | MCP-1 conc. (MCP-1 Induction by CRP; [7]): 14.6 ± 6.7 ng/mL | -Fold Increase in MCP-1 conc. (MCP-1 Induction by CRP; [8]): 6.4 ± 1.8 -Fold | MCP-1 conc. (MCP-1 Induction by CRP; [8]): 13.7 ± 6.7 ng/mL | MCP-1 secretion, % of maximal CRP-induced response at 100 µM (MCP-1 Induction by CRP; [9]): 104% | MCP-1 secretion, % of maximal CRP-induced response at 1000 µM (MCP-1 Induction by CRP; Homo sapiens, HUVEC, CRP 100 μg/mL + test substance 1 mmol/L): 102% | effect on the effects of C-reactive protein (MCP-1 induction, in words) (MCP-1 Induction by CRP; high concentration, up to 1 mM): did not inhibit

CC1(COc2ccc(CC3SC(=O)NC3=O)cc2)CCCCC1 (stereo not shown) [ciglitazone]
-Fold Increase in MCP-1 conc. (MCP-1 Induction by CRP; [10]): 4.8 ± 1.5 -Fold | MCP-1 conc. (MCP-1 Induction by CRP; [10]): 10.2 ± 4.6 ng/mL | -Fold Increase in MCP-1 conc. (MCP-1 Induction by CRP; [7]): 4.1 ± 1.0 -Fold | MCP-1 conc. (MCP-1 Induction by CRP; [7]): 8.7 ± 3.4 ng/mL | -Fold Increase in MCP-1 conc. (MCP-1 Induction by CRP; [11]): 2.7 ± 0.8 -Fold | MCP-1 conc. (MCP-1 Induction by CRP; [11]): 5.9 ± 2.5 ng/mL | MCP-1 secretion, % of maximal CRP-induced response at 50 µM (MCP-1 Induction by CRP; Homo sapiens, HUVEC, CRP 100 μg/mL + test substance 50 μmol/L): 74% | MCP-1 secretion, % of maximal CRP-induced response at 100 µM (MCP-1 Induction by CRP; [9]): 65% | MCP-1 secretion, % of maximal CRP-induced response at 200 µM (MCP-1 Induction by CRP; Homo sapiens, HUVEC, CRP 100 μg/mL + test substance 200 μmol/L): 42%

CC(C)OC(=O)C(C)(C)Oc1ccc(C(=O)c2ccc(Cl)cc2)cc1 [fenofibrate]
-Fold Increase in MCP-1 conc. (MCP-1 Induction by CRP; [7]): 0.9 ± 0.2 -Fold | MCP-1 conc. (MCP-1 Induction by CRP; [7]): 2.1 ± 0.6 ng/mL | MCP-1 secretion, % of maximal CRP-induced response at 100 µM (MCP-1 Induction by CRP; [9]): 15%

Cc1c(C)c2c(c(C)c1O)CCC(C)(COc1ccc(CC3SC(=O)NC3=O)cc1)O2 (stereo not shown) [troglitazone]
-Fold Increase in MCP-1 conc. (MCP-1 Induction by CRP; [12]): 5.2 ± 1.7 -Fold | MCP-1 conc. (MCP-1 Induction by CRP; [12]): 11.4 ± 5.2 ng/mL | MCP-1 secretion, % of maximal CRP-induced response at 20 µM (MCP-1 Induction by CRP; Homo sapiens, HUVEC, CRP 100 μg/mL + test substance 20 μmol/L): 83%

interleukin-1: Interleukin-1 provided by RandD systems; a well known activator of endothelial cells
E-selectin expression [1]: no increase | RANTES expression (HUVEC [2]; Interleukin-1β 10 ng/mL): did not induce | MCP-1 response in absence of serum (HUVEC [3]; IL-1β, serum-free medium): absence of serum did not change the response | MCP-1 concentration (HUVEC [3]; Interleukin-1β 10 ng/mL, 15% human serum): 8.6 ± 3.7 ng/mL | expression of adhesion molecules ([4]; interleukin-1, serum-free medium): able to induce adhesion molecules | induction of adhesion molecules expression compared with C-reactive protein 10 μg/mL ([5]; interleukin-1 10 ng/mL, same time-intervals (24-hour; 6-hour for E-selectin), HUVEC with human serum): similar

B1: CRP: Recombinant human C-reactive protein purchased from Biochem; acute phase reactant protein (protein, UniProt P02741 19-224, looked up)
C-reactive protein: QTDMSRKAFVFPKESDTSYVSLKAPLTKPLKAFTVCLHFYTELSSTRGYSIFSYATKRQDNEILIFWSKDIGYSFTVGGSEILFEVPEVTVAPVHICTSWESASGIVEFWVDGKPRVRKSLKKGYTVGAEASIILGQEQDSFGGNFEGSQSLVGDIGNVNMWDFVLSPDEINTIYLGGPFSPNVLNWRALKYEVQGEVFTKPQLWP
E-selectin expression [1]: no increase | Secretion of RANTES (HUVEC [2]; C-reactive protein 100 μg/mL, 15% human serum): not increased | CRP concentration already giving significant induction of MCP-1 (HUVEC [3]; 24-hour incubation, 15% human serum): 5 µg/mL | MCP-1 concentration (HUVEC [3]; CRP 10 μg/mL, 24-hour incubation, 15% human serum, baseline 1.1±0.5): 2.4 ± 0.9 ng/mL | MCP-1 concentration (HUVEC [3]; CRP 100 μg/mL (peak), 24-hour incubation, 15% human serum): 9.7 ± 4.8 ng/mL | MCP-1 concentrations (HUVEC [3]; CRP 100 μg/mL, 24-hour, serum-free medium): did not induce a significant increase | fold-increase of MCP-1 secretion (HUVEC [3]; CRP 100 μg/mL, 24-hour, versus human albumin 100 μg/mL, 15% human serum): 7 fold-increase | expression of adhesion molecules (ICAM-1, VCAM-1, E-selectin) ([4]; C-reactive protein 100 μg/mL, 24-hour (6-hour for E-selectin), serum-free medium): could not induce; also recorded: did not induce | E-selectin expression ([5]; C-reactive protein 10 μg/mL, 6-hour incubation, HUVEC with human serum): significant increase | ICAM-1 expression [5, 13]: large increase | VCAM-1 expression [5, 13]: significant increase | VCAM-1 expression ([5]; C-reactive protein 10 μg/mL, 24-hour incubation, HUVEC with human serum, listed as recombinant C-reactive protein): large increase | further increase in adhesion molecules expression on increase of concentration ([5]; C-reactive protein up to 100 μg/mL, compared with 10 μg/mL, 4th passage cells, 15% human serum): only a modest further increase | further adhesion molecules induction on increase of concentration ([5]; C-reactive protein up to 200 μg/mL, compared with 10 μg/mL): only a modest further adhesion molecules induction | C-reactive protein concentration at which adhesion molecule expression is nearly maximum ([5]; dose response, HUVEC with 15% human serum): 10 µg/mL | % of Maximal Response (MCP-1 Induction by CRP; CRP 100 μg/mL alone, 24 hours): 100% | -Fold Increase in MCP-1 conc. (MCP-1 Induction by CRP; CRP 100 μg/mL alone, 24 hours): 6.3 ± 1.8 -Fold | MCP-1 conc. (MCP-1 Induction by CRP; CRP 100 μg/mL alone, 24 hours): 13.6 ± 5.4 ng/mL

From patent US6764826B2, “Inhibitors of C-reactive protein induced inflammation” (Board of Regents, The University of Texas System, priority 2000, dated 2004)
